Laboratory results: patent US20090325952A1, “PYRAZOLO[3,4-B]PYRIDINE COMPOUNDS, AND THEIR USE AS PDE4 INHIBITORS” (Glaxo Group Limited, priority 2006, published 2009)
Where a name gives a salt, the structure may show the parent alone. Blank lines part the entries; values can stand above or below the compound they belong to.

Tests used:
[1] = test system: LPS-induced nasal neutrophilia in rats; test: In Vivo Assay 2: LPS induced nasal neutrophilia in rats, intranasal administration; design: species or system rat; details: for inhibition (arithmetic mean) of LPS-induced nasal neutrophilia: rats, i.n. aqueous solution, about 30 minutes prior to LPS
Excerpt: This assay is an animal model of acute inflammation in the nose—specifically neutrophilia induced by lipopolysaccharide (LPS)— and allows the study of putative inhibition of such neutrophilia (anti-inflammatory effect) by an intranasally (i.n.) administered PDE4 inhibitor (“drug”). The PDE4 inhibitor is preferably in the form of an aqueous suspension or aqueous solution. Bolus, i.n. administration allows topical delivery to the nose.
Animals: Male CD rats (Sprague Dawley derived), weighing between 300-350 g are supplied by Charles River, UK and transported to the test site. On arrival at the test site, the animals are housed in groups of 4 or 5 per cage and complete a minimum acclimatisation period of 7 days. The animals are housed in solid bottomed cages using grade 8 sawdust. The bedding and nesting materials are changed 3 times per week. Diet comprises SDS diet R1 pelleted food given ad lib. Pasteurised animal grade drinking water is supplied and changed daily.
Lipopolysaccharide (Serotype: 0127:B8, e.g. available from Sigma, UK; e.g. L3129 prepared by phenol extraction) is used for all studies and is dissolved in phosphate-buffered saline (PBS).
Tween 80™ (e.g. available from Sigma e.g. 023K 01575). A mixture of 0.2% Tween 80™ in phosphate buffered saline (PBS) is prepared as vehicle for solution compositions. The Sigma catalogue 2004-2005 and The Handbook of Pharmaceutical Excipients (HPE) 4th edition 2003 pp. 479-483 define Tween 80™ as a brand of polysorbate 80 (according to HPE, polysorbate 80 is also named polyoxyethylene 20 sorbitan monooleate, i.e. having been copolymerised with about 20 moles of ethylene oxide for each mole of sorbitol and/or sorbitol anhydrides used).
The PDE4 inhibitor compound or salt of the invention (“drug”) is preferably used in size-reduced (e.g. micronised) form, for example according to the Micronisation Example(s) disclosed herein.
A solution of compound (0.7 mg/ml) is generally prepared by adding 0.2% Tween 80™ in phosphate buffered saline (PBS) to a pre-weighed micronised sample of the drug. The solution composition is sonicated, e.g. for approximately 2 min, and is observed to be a solution (if it is a solution) by visual assessment. A fixed volume of 50 microlitres (25 microlitres into each nostril) of either the drug-containing solution composition or a saline/Tween 80™ vehicle is administered to all animals. Each animal weighs, on average, 350 g. To achieve a dose of 100 μg/kg (100 ug/kg), each animal receives a total of 35 μg (35 ug) of the drug. The dose volume is 50 microlitres (25 microlitres to each nostril), and therefore a concentration of 35 μg (ug) per 50 microlitres (0.7 mg/ml) is prepared. To achieve lower dose concentrations, serial dilutions are prepared in saline/Tween 80™
Intranasal dosing with the PDE4 inhibitor (drug): Rats are anaesthetised by placing the animals in a sealed Perspex chamber and exposing them to a gaseous mixture of isofluorane (5%), nitrous oxide (2 L/min) and oxygen (1 L/min). Once anaesthetised, the animals are i.n. dosed with vehicle or PDE4 inhibitor aqueous compositions using a 10-100-microlitre-range Gilson pipette and plastic disposable tip. A volume of 25 microlitres is administered into each nostril by carefully inserting the pipette tip into the nostril and dispensing the required volume. When the dosing procedure is completed, the animal is returned to the cage and observed at regular intervals until it had recovered from the effects of the anaesthetic. […]

[2] = test system: LPS-induced pulmonary neutrophilia in rats; test: In Vivo Assay 1: LPS induced pulmonary neutrophilia in rats, intratracheal administration; design: species or system rat; details: rats, i.t. dry powder blended in lactose; for arithmetic mean inhibition of LPS-induced pulmonary neutrophilia: about 2 hours prior to LPS
Excerpt: This assay is an animal model of acute inflammation in the lung—specifically neutrophilia induced by lipopolysaccharide (LPS)—and allows the study of putative inhibition of such neutrophilia (anti-inflammatory effect) by an intratracheally (i.t.) administered PDE4 inhibitor (“drug”). The PDE4 inhibitors are suitably in dry powder, aqueous solution or aqueous suspension form. I.t. administration is one model of inhaled administration, allowing topical delivery to the lung.
Animals: Male CD (Sprague Dawley Derived) rats supplied by Charles River, United Kingdom are housed in groups of 5 rats per cage, acclimatised after delivery for at least 7 days with bedding/nesting material regularly changed, fed on SDS diet R1 pelleted food given ad lib, and supplied with daily-changed pasteurised animal grade drinking water.
Device for dry powder administration: For these studies, a Penn Century DP-4 dry powder intratracheal (i.t.) delivery device (insufflator) is used for administration of a dry powder blend of vehicle (inhalation grade lactose) and the PDE4 inhibitor compound or salt of the invention (“drug”). Each device is numbered and the sample loading chamber is unscrewed from the main device and weighed. The i.t. delivery needle is also weighed. The drug+lactose blend or inhalation grade lactose (vehicle control) is then added to the sample chamber and this is then re-weighed. The sample chamber is fitted back on to the main device to prevent any drug being lost. This procedure is repeated for all of the Penn century devices to be used in the study (one separate device for each animal). After dosing to the animals, the sample chambers and needles are re-weighed in order to determine the amount of sample that was expelled from the device.
Device for aqueous solution administration: A blunt dosing needle, whose forward end is slightly angled to the needle axis, is used, with a flexible plastic portex canula inserted into the needle. The portex cannula is inserted into the lumen of the blunt stainless steel dosing needle and this is carefully inserted into the back of the animal's throat and into the trachea via the larynx. A known volume (200 microlitres) of the vehicle (0.2% Tween 80™ in saline) or of the solution (or suspension) drug composition is administered into the trachea using a plastic syringe that is attached to the portex cannula and dosing needle. A new internal cannula is used for each different drug group. After dosing, the needle is removed from the trachea and the animals are removed from the table and continually observed until they recover from the effects of anaesthesia. The animals are then returned to the holding cages and given free access to food and water, and are observed and any unusual behavioural changes noted. (Aqueous suspensions can be handled generally similarly.)
Drugs and Materials: Lipopolysaccharide (LPS) (Serotype:0127:B8, e.g. from Sigma, UK; e.g. L3129 prepared by phenol extraction) is dissolved in phosphate-buffered saline (PBS).
For dry powder, aqueous solution or aqueous suspension administration, PDE4 inhibitors are preferably used in size-reduced (e.g. micronised) form, for example according to the Micronisation Example(s) disclosed herein.
For dry powder administration of the drug, the PDE4 inhibitor compound or salt of the invention (drug) is administered as a dry powder blended with inhalation-grade (respiratory-grade) lactose, i.e. as a dry powder composition. The target quantity of dry powder composition administered i.t. to each animal is 2 mg. This remains constant throughout the studies. To achieve different doses, blends of the drug dry powder and lactose, containing different concentrations of the PDE4 inhibitor compound or salt of the invention (drug), are prepared. […]

[3] = test system: atopic dermatitis patients; details: cited from earlier work
COPD patients [4] = details: cited from earlier work
[5] = test system: humans with histories of allergic rhinitis; details: orally 500 ug once daily for 9 days, intranasal allergen provocation (pollen extracts); cited from earlier work
[6] = Gravimetric vapour sorption / moisture uptake of solid forms; assay type: physicochemical
Excerpt: In addition, water is believed to be readily lost from the Form 2 hydrate (a) on heating to only slightly above room temperature and/or (b) on reduction in the relative humidity (R^H) (e.g. water appears to be lost from the Form 2 hydrate when the R^H is reduced to 0% R^H).

COPD patients [7] = details: cited from earlier work; remark: listed apart in the source

SMILES: CCc1nc2c(cnn2CC)c(NC2CCOCC2)c1CNC(=O)c1ccc(NC(=O)CCCCCCCN(C)CCO)cc1 [Example 1A2, N-{[1,6-diethyl-4-(tetrahydro-2H-pyran-4-ylamino)-1H-pyrazolo[3,4-b]pyridin-5-yl]methyl}-4-({8-[(2-hydroxyethyl)(methyl)amino]octanoyl}amino)benzamide monohydrochloride]
- estimated ED50 for inhibition of LPS-induced nasal neutrophilia ([1]; rat, i.n., micronised, aqueous solution in 0.2% Tween 80 in PBS, about 30 minutes prior to LPS challenge): approximately 4.6 micrograms/kg body weight
- inhibition (arithmetic mean) of LPS-induced nasal neutrophilia ([1]; about 1 micrograms/kg): essentially no inhibition
- inhibition (arithmetic mean) of LPS-induced nasal neutrophilia ([1]; about 3 micrograms/kg): small and non-statistically-significant inhibition
- inhibition (arithmetic mean) of LPS-induced nasal neutrophilia ([1]; about 10 micrograms/kg): about 62%
- inhibition (arithmetic mean) of LPS-induced nasal neutrophilia ([1]; about 100 micrograms/kg): about 79%
- arithmetic mean inhibition of LPS-induced pulmonary neutrophilia ([2]; about 10 micrograms/kg): about 29%
- arithmetic mean inhibition of LPS-induced pulmonary neutrophilia ([2]; about 30 micrograms/kg): about 44%
- arithmetic mean inhibition of LPS-induced pulmonary neutrophilia ([2]; about 100 micrograms/kg): about 39%
- inhibition of LPS-induced pulmonary neutrophilia ([2]; about 100 micrograms/kg, about 4 hours prior to LPS): about 60%
- arithmetic mean inhibition of LPS-induced pulmonary neutrophilia ([2]; about 300 micrograms/kg): about 55%

SMILES: Nc1nc2c([nH]1)c(=O)n(CC1CC1)c(=O)n2CC1CC1 [cipamfylline]
- efficacy in the treatment of atopic dermatitis patients ([3]; 0.15% cream, versus vehicle and hydrocortisone 17-butyrate (0.1%) cream): significantly more effective than vehicle, but significantly less effective than hydrocortisone 17-butyrate (0.1%) cream

SMILES: O=C(Nc1c(Cl)cncc1Cl)c1ccc(OC(F)F)c(OCC2CC2)c1 [roflumilast]
- FEV1 (COPD patients [4]): small improvements
- rhinal airflow during the treatment period (compared to placebo) [5]: effective in improving rhinal airflow

- moisture uptake, % weight gain ([6]; 25° C., RH increased from 30% to 75%): about 0.5%
SMILES: CCc1nc2c(cnn2CC)c(NC2CCOCC2)c1CNC(=O)c1ccc(NC(=O)CCCCCCCN(C)CCO)cc1 [N-{[1,6-Diethyl-4-(tetrahydro-2H-pyran-4-ylamino)-1H-pyrazolo[3,4-b]pyridin-5-yl]methyl}-4-({8-[(2-hydroxyethyl)(methyl)amino]octanoyl}amino)benzamide monohydrochloride]

SMILES: COc1ccc([C@]2(C#N)CC[C@@H](C(=O)O)CC2)cc1OC1CCCC1 [cilomilast]
- forced expiratory volume in 1 s (FEV1) (COPD patients [4]; 15 mg orally twice daily): appears to improve
- antiinflammatory effects (COPD patients [7]): appears to have antiinflammatory effects

SMILES: CCc1nc2c(cnn2CC)c(NC2CCOCC2)c1CNC(=O)c1ccc(NC(=O)CCCCCCCN(C)CCO)cc1 [N-{[1,6-diethyl-4-(tetrahydro-2H-pyran-4-ylamino)-1H-pyrazolo[3,4-b]pyridin-5-yl]methyl}-4-({8-[(2-hydroxyethyl)(methyl)amino]octanoyl}amino)benzamide monohydrochloride]
- propensity to take up water as relative humidity increases ([6]; compared with Form 1 anhydrate): greater propensity to take up water than the crystalline monohydrochloride Form 1 anhydrate

SMILES: COc1ccc(C2CNC(=O)NC2)cc1O[C@H]1C[C@@H]2CC[C@H]1C2 [CP80,633]
- inflammatory parameters ([3]; atopic dermatitis patients, 0.5% ointment, twice daily topical application): reductions of inflammatory parameters
